Read-outs that look alike come from different tables or passages of the source.
Key:
[1] = molecular target: T1, TCTP (Homo sapiens, UniProt P13693); conditions: prior art section; read-out: affinity for TCTP, Kd; cited from earlier work
T1 sequence (P13693 1-172): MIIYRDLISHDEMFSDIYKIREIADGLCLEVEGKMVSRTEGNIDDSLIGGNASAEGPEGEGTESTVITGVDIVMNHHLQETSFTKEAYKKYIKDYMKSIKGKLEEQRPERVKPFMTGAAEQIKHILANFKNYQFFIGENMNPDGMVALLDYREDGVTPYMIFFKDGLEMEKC

[2] = test system: p53 protein; test: Overexpression of p53 protein, Western blot; format: cell-based; conditions: 10 μM
Method: The compound AC014 is capable of inducing overexpression of p53 (FIG. 1).
The Western blot was carried out according to the protocol described in the following article: Amson R, Pece S, Lespagnol A, Vyas R, Mazzarol G, Tosoni D, Colaluca I, Viale G, Rodrigues-Ferreira S, Wynendaele J, Chaloin O, Hoebeke J, Marine J C, Di Fiore P P, Telerman A. Nat Med. 2011 Dec. 11; 18(1):91-9.
The following antibodies were used in the Western blot assay: anti-TCTP antibodies were generated against the whole human-derived TCTP. These polyclonal antibodies were purified by affinity column affinity coupled to TCTP (Agro-Bio). Anti-P53 1C12 mouse antibody (Cell Signaling Technology) was used at a dilution of 1/1000.
Secondary antibodies (antirabbit and antimouse) conjugated to HRP were used at a dilution of 1/5000 to visualize the signals by Western blots.

[3] = humans; cited from earlier work
[4] = test system: human HCT116 cells; test: Inhibition of cell growth, CellTiter Glo assay; conditions: for GI50: Homo sapiens
Method: The viability and proliferation of human HCT116 cells is measured using the “CellTiter Glo®” assay (Promega), which is a luminescent measure of the number of living cells. Sertraline and AC070 were tested at 10 concentrations and results are expressed as GI50, TGI, LC50 and IC50 relative to control cells (DMSO).
The CellTiter-Glo® assay is a homogeneous method for determining the number of viable cells in culture based on a quantification of the ATP present, an indicator of metabolically active cells. The homogeneous test procedure involves the addition of a single reagent (the CellTiter-Glo® reagent) directly to the cultured cells in serum-enriched medium.
The results of the test are reported in the following Tables 2 and 3 (Table 2: sertraline and Table 3: AC070): […]

CN[C@H]1CC[C@@H](c2ccc(Cl)c(Cl)c2)c2ccccc21 [sertraline, reference compound]
Kd [1]: 198000 nM | expression of the p53 protein [2]: induced | maximum tolerated dose (MTD) [3]: 400 mg/day | TGI50 1 ([4]; HCT116, CellTiter Glo, determination 1): 0.203 µM | TGI50 2 ([4]; HCT116, CellTiter Glo, determination 2): 0.229 µM | TGI50 3 ([4]; HCT116, CellTiter Glo, determination 3): 0.253 µM | TGI50 Mean ([4]; HCT116, CellTiter Glo, mean): 0.228 µM | TGI50 Median ([4]; HCT116, CellTiter Glo, median): 0.227 µM | GI50 ([4]; HCT-116, read-out: GI50 1): 125 nM | GI50 ([4]; HCT-116, read-out: GI50 2): 141 nM | GI50 ([4]; HCT-116, read-out: GI50 3): 159 nM | GI50 ([4]; HCT-116, read-out: GI50 Mean): 142 nM | GI50 ([4]; HCT-116, read-out: GI50 Median): 140 nM | GI50 ([4]; HCT-116, read-out: cell growth inhibition constant GI50): 141 nM
